“And” between values parts separate entries of the source, which are not always exact repeats. Identical values can stand only once.
Tests used:
Assay type in all cases: physicochemical
[1] = Stability study for Compound 1 Form B (storage conditions)
[2] = Compression simulation experiments; details: for Comments: color / Comments: crystallinity / XRPD: compressed 5 minutes
Method: About 20 mg of Compound 1 Form B was compressed for 5 minutes under 2 MPa and 10 MPa with a hydraulic press. Potential form change and degree of crystallinity were evaluated by XRPD.

[3] = Water sorption and desorption (DVS) of Compound 1 Form B; details: for 1st desorp. Weight % change / 1st sorp. Weight % change / 2nd desorp. Weight % change / 2nd sorp. Weight % change: 25° C.
Method: Water sorption and desorption behavior of Compound 1 Form B was investigated by DVS at 25° C. with a cycle of 40-0-95-0-40% RH, dm/dt 0.002, min. equilibration time 60 min and maximum equilibration time 360 min XRPD was measured after the DVS test to determine form change.

[4] = 25° C. ± 2° C./60% RH ± 5% RH, 3 M
[5] = 25° C. ± 2° C./60% RH ± 5% RH, 6 M
[6] = 40° C. ± 2° C./75% RH ± 5% RH, 3 M
[7] = 40° C. ± 2° C./75% RH ± 5% RH, 6 M

Structure (SMILES): CCN(C)S(=O)(=O)Nc1ccc(F)c(Oc2ccc3ncn([C@H]4COC5(CCN(C(=O)CC6(O)CCN(c7cc8c(cc7F)c(N7CCC(=O)NC7=O)nn8C)CC6)CC5)C4)c(=O)c3c2)c1C#N [Compound 1 Form B]
- Appearance ([1]; 5 ± 3° C., 6 M): white solid
- Assay by UPLC (% w/w) ([1]; 5 ± 3° C., 6 M): 97.7% w/w
- Chiral purity by HPLC (% area) ([1]; 5 ± 3° C., 6 M): 99.9% area
- Purity by UPLC (% area) ([1]; 5 ± 3° C., 6 M): 99.0% area
- Related Substances, UPLC (% area), Total Impurities ([1]; 5 ± 3° C., 6 M): 1.0% area
- Water Content by KF (% w/w) ([1]; 5 ± 3° C., 6 M): 1.2% w/w
- XRPD ([1]; 5 ± 3° C., 6 M): Form B
- Water content trend ([1]; 5±3° C., 25° C./60% RH, 40° C./75% RH): increasing trend
- Stability study outcome (appearance, purity, assay, related substance, chiral purity, water content, XRPD) ([1]; 6M, 5±3° C., 25° C./60% RH, 40° C./75% RH): meet the acceptance criteria
- Assay by UPLC (% w/w) [1, 4]: 97.2% w/w
- Chiral purity by HPLC (% area) [1, 4]: 99.9% area
- Purity by UPLC (% area) [1, 4]: 98.9 % area
- Related Substances, UPLC (% area), Total Impurities [1, 4]: 1.1% area
- Water Content by KF (% w/w) [1, 4]: 0.7% w/w
- XRPD [1, 4]: Form B
- Assay by UPLC (% w/w) [1, 5]: 97.8% w/w
- Chiral purity by HPLC (% area) [1, 5]: 99.9% area
- Purity by UPLC (% area) [1, 5]: 99.1 % area
- Related Substances, UPLC (% area), Total Impurities [1, 5]: 0.90% area
- Water Content by KF (% w/w) [1, 5]: 0.9% w/w
- XRPD [1, 5]: Form B
- Assay by UPLC (% w/w) [1, 6]: 92.2% w/w
- Chiral purity by HPLC (% area) [1, 6]: 99.9% area
- Purity by UPLC (% area) [1, 6]: 92.2% area
- Related Substances, UPLC (% area), Total Impurities [1, 6]: 1.2% area
- Water Content by KF (% w/w) [1, 6]: 0.9 % w/w
- XRPD [1, 6]: Form B
- Assay by UPLC (% w/w) [1, 7]: 92.5% w/w
- Chiral purity by HPLC (% area) [1, 7]: 99.9% area
- Purity by UPLC (% area) [1, 7]: 92.5% area
- Related Substances, UPLC (% area), Total Impurities [1, 7]: 1.1% area
- Water Content by KF (% w/w) [1, 7]: 1.0 % w/w
- XRPD [1, 7]: Form B
- Appearance ([1]; Initial): white solid
- Assay by UPLC (% w/w) ([1]; Initial): 99.4% w/w and 97.3% w/w
- Chiral purity by HPLC (% area) ([1]; Initial): 99.8% area
- Purity by UPLC (% area) ([1]; Initial): 98.9% area and 97.3% area
- Related Substances, UPLC (% area), Total Impurities ([1]; Initial): 1.1% area
- Water Content by KF (% w/w) ([1]; Initial): 0.4% w/w
- XRPD ([1]; Initial): Form B
- Morphic form stability under compression ([2]; 2 MPa and 10 MPa): excellent morphic form stability
- Comments: color ([2]; 2 MPa): Slight discoloration.
- Comments: crystallinity ([2]; 2 MPa): Slight decrease in crystallinity;
- XRPD ([2]; 2 MPa): Form B
- Comments: color ([2]; 10 MPa): Slight discoloration.
- Comments: crystallinity ([2]; 10 MPa): Slight decrease in crystallinity;
- XRPD ([2]; 10 MPa): Form B
- 1st desorp. Weight % change ([3]; 0% RH): 0.0%
- 1st sorp. Weight % change ([3]; 0% RH): 0.0%
- 2nd desorp. Weight % change ([3]; 0% RH): 0.0%
- 2nd sorp. Weight % change ([3]; 0% RH): 0.0%
- 1st desorp. Weight % change ([3]; 10% RH): 0.1%
- 1st sorp. Weight % change ([3]; 10% RH): 0.1%
- 2nd desorp. Weight % change ([3]; 10% RH): 0.1%
- 2nd sorp. Weight % change ([3]; 10% RH): 0.1%
- 1st desorp. Weight % change ([3]; 20% RH): 0.3%
- 1st sorp. Weight % change ([3]; 20% RH): 0.2%
- 2nd desorp. Weight % change ([3]; 20% RH): 0.3%
- 2nd sorp. Weight % change ([3]; 20% RH): 0.2%
- 1st desorp. Weight % change ([3]; 30% RH): 0.4%
- 1st sorp. Weight % change ([3]; 30% RH): 0.3%
- 2nd desorp. Weight % change ([3]; 30% RH): 0.4%
- 2nd sorp. Weight % change ([3]; 30% RH): 0.3%
- 1st desorp. Weight % change ([3]; 40% RH): 0.5%
- 1st sorp. Weight % change ([3]; 40% RH): 0.4%
- 2nd desorp. Weight % change ([3]; 40% RH): 0.5%
- 2nd sorp. Weight % change ([3]; 40% RH): 0.4%
- 1st sorp. Weight % change ([3]; 50% RH): 0.5%
- 2nd desorp. Weight % change ([3]; 50% RH): 0.8%
- 1st sorp. Weight % change ([3]; 60% RH): 0.6%
- 2nd desorp. Weight % change ([3]; 60% RH): 0.9%
- 1st sorp. Weight % change ([3]; 70% RH): 0.7%
- 2nd desorp. Weight % change ([3]; 70% RH): 1.0%
- 1st sorp. Weight % change ([3]; 80% RH): 0.9%
- 2nd desorp. Weight % change ([3]; 80% RH): 1.2%
- 1st sorp. Weight % change ([3]; 90% RH): 1.2%
- 2nd desorp. Weight % change ([3]; 90% RH): 1.4%
- 1st sorp. Weight % change ([3]; 95% RH): 1.6%
- 2nd desorp. Weight % change ([3]; 95% RH): 1.6%
- Crystallinity change after water sorption and desorption ([3]; DVS 25° C., 40-0-95-0-40% RH cycle): no changes in crystallinity
- Water uptake ([3]; DVS 25° C., at 95% RH): 1.6%

Reference: patent US20250289827A1, “MORPHIC FORMS OF A MUTANT BRAF DEGRADER AND METHODS OF MANUFACTURE THEREOF” (C4 THERAPEUTICS, INC., priority 2022, published 2025)
